Experiment [1] concerns the target T1, CCK-1 receptor (Homo sapiens, UniProt P32238).
T1 construct: expressed in transfected cells; host or cells: CHO-K1
T1 sequence (P32238 1-428): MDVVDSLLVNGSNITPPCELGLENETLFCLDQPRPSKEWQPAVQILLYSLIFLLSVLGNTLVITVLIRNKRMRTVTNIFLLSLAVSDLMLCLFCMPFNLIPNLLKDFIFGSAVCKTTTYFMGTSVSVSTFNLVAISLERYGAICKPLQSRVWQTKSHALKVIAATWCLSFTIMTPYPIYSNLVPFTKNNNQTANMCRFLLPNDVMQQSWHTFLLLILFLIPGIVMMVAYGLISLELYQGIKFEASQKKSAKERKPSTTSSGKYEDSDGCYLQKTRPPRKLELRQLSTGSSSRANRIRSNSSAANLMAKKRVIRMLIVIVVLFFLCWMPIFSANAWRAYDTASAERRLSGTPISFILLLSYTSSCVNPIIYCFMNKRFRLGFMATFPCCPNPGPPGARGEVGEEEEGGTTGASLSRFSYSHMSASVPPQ
As to the kind of experiment: CCK1 binding assay ([125I]-BH-CCK-8S displacement, CHO-K1 membranes). To be noted: membranes of CHO-K1 cells stably transfected with the CCK-1 receptor, 20 pM [125I]-BH-CCK-8S, 0.3 μM PD-134,308 present, 60 min at 21±3° C.; for Ki: read-out: CCK1 pKi (converted). Put shortly:
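Membranes from CHO-K1 cells stably expressing CCK-1 incubated 1 h at 21±3° C with 20 pM [125I]-BH-CCK-8S in HEPES buffer pH 7.2 containing 0.3 μM PD-134,308 to block CCK-2. Bound radioactivity read by gamma counting after filtration. pKi derived via Cheng-Prusoff, with specific binding defined using 2-NAP.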

The target in experiment [2] is T2, CCK2 receptor (Homo sapiens, UniProt P32239).
T2 construct: analyzed for ZFP expression as well as CCK2R induction upon addition of doxycycline to the culture medium; endogenous in cells
T2 sequence (P32239 1-447): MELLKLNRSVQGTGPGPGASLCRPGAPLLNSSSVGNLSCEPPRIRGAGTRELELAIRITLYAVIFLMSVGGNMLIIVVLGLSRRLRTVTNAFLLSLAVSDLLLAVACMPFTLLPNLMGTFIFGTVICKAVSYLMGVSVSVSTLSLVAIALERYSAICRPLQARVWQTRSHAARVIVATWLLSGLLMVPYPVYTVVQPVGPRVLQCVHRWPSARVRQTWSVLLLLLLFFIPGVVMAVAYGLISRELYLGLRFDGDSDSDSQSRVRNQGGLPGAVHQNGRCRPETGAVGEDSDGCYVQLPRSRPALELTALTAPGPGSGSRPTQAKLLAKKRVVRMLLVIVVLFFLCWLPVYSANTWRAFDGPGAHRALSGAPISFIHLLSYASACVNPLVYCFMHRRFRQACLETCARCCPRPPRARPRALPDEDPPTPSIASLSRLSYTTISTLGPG
Kind of experiment: CCK2 binding assay ([125I]-BH-CCK-8S displacement, HEKZFP membranes). Conditions: membranes of doxycycline-induced HEKZFP cells, 20 pM [125I]-BH-CCK-8S, 60 min at 21±3° C.; for Ki: read-out: CCK2 pKi (converted).

For the compound `CC(CNC(=O)c1ccc(Br)cc1NS(=O)(=O)c1cccc2nsnc12)c1ccc(Cl)cc1` (centres unmarked) [Example 21, 2-(Benzo[1,2,5]thiadiazole-4-sulfonylamino)-4-bromo-N-[2-(4-chloro-phenyl)-propyl]-benzamide], the Ki in experiment [1] was 126 nM; in experiment [2] it was 1000 nM.

Regarding `CC(Cc1ccc(Cl)cc1)NC(=O)c1ccc(C(F)(F)F)cc1NS(=O)(=O)c1cccc2nsnc12` (centres unmarked) [Example 22, 2-(Benzo[1,2,5]thiadiazole-4-sulfonylamino)-N-[2-(4-chloro-phenyl)-1-methyl-ethyl]-4-trifluoromethyl-benzamide], the Ki in experiment [1] is 501 nM; in experiment [2], 631 nM.

Consider `CC(Cc1ccc(Cl)cc1)NC(=O)c1ccc(Br)cc1NS(=O)(=O)c1cccc2scnc12` (centres unmarked) [Example 23, 2-(Benzothiazole-4-sulfonylamino)-4-bromo-N-[2-(4-chloro-phenyl)-1-methyl-ethyl]-benzamide], for which the Ki in experiment [1] was 1000 nM; in experiment [2], 631 nM.

`CC(CNC(=O)c1ccc(Br)cc1NS(=O)(=O)c1c(F)cccc1F)c1ccc(Cl)cc1` (centres unmarked) [Example 24, 4-Bromo-N-[2-(4-chloro-phenyl)-propyl]-2-(2,6-difluoro-benzenesulfonylamino)-benzamide]: the Ki was 100 nM in experiment [1] and 1260 nM in experiment [2].

As for `O=C(N[C@@H](Cc1ccccc1)C(=O)O)c1ccc(C(F)(F)F)cc1NS(=O)(=O)c1cccc2nsnc12` [Example 26, 2-[2-(Benzo[1,2,5]thiadiazole-4-sulfonylamino)-4-trifluoromethyl-benzoylamino]-3-phenyl-propionic acid], the Ki in experiment [1] is 2510 nM; in experiment [2], 39.8 nM.

On to `O=C(N[C@@H](Cc1ccccc1)C(=O)O)c1cc(Cl)c(Cl)cc1NS(=O)(=O)c1cccc2nccnc12` [Example 29, 2-[4,5-Dichloro-2-(quinoxaline-5-sulfonylamino)-benzoylamino]-3-phenyl-propionic acid], for which the values for the Ki in experiment [1] and in experiment [2] were 6310 nM and 79.4 nM, respectively.

`CC(CNC(=O)c1ccc(Br)cc1NS(=O)(=O)c1c(F)cccc1F)c1ccc(Cl)c(Cl)c1` (centres unmarked) [Example 30, 4-Bromo-N-[2-(3,4-dichloro-phenyl)-propyl]-2-(2,6-difluoro-benzenesulfonylamino)-benzamide]: the values for the Ki in experiment [1] and in experiment [2] were 63.1 nM and 2510 nM, respectively.

For `CC(CNC(=O)c1ccc(Br)cc1NS(=O)(=O)c1cccc2nsnc12)c1ccccc1` (centres unmarked) [Example 31, 2-(Benzo[1,2,5]thiadiazole-4-sulfonylamino)-4-bromo-N-(2-phenyl-propyl)-benzamide], in experiment [1], the “CCK1 pKi” value is recorded as 7.1. The “CCK2 pKi” value in experiment [2] was determined as 6.2.

Turning to `O=C(N[C@@H](Cc1ccc(Cl)c(Cl)c1)C(=O)O)c1ccc(I)cc1NS(=O)(=O)c1c(F)cccc1F` [Example 32, 3-(3,4-Dichloro-phenyl)-2-[2-(2,6-difluoro-benzenesulfonylamino)-4-iodo-benzoylamino]-propionic acid], the Ki in experiment [1] is 398 nM; in experiment [2], 100 nM.

Consider `O=C(N[C@@H](Cc1ccc(Cl)cc1)C(=O)O)c1ccc(I)cc1NS(=O)(=O)c1cccc2nsnc12` [Example 33, 2-[2-(Benzo[1,2,5]thiadiazole-4-sulfonylamino)-4-iodo-benzoylamino]-3-(4-chloro-phenyl)-propionic acid], for which the Ki in experiment [1] was 158 nM; in experiment [2], 39.8 nM.

In the case of `O=C(N[C@@H](Cc1ccc(Cl)cc1)C(=O)O)c1ccc(I)cc1NS(=O)(=O)c1c(F)cccc1F` [Example 34, 3-(4-Chloro-phenyl)-2-[2-(2,6-difluoro-benzenesulfonylamino)-4-iodo-benzoylamino]-propionic acid], the Ki in experiment [1] is 398 nM; in experiment [2] it was 100 nM.

On to `C[C@H](CNC(=O)c1ccc(Br)cc1NS(=O)(=O)c1cccc2nsnc12)c1ccccc1` [Example 35, (S)-2-(Benzo[1,2,5]thiadiazole-4-sulfonylamino)-4-bromo-N-(2-phenyl-propyl)-benzamide], for which the “CCK1 pKi” value in experiment [1] is reported as 7.2. For the same compound, the “CCK2 pKi” value in experiment [2] was 6.3.

Turning to `C[C@@H](CNC(=O)c1ccc(Br)cc1NS(=O)(=O)c1cccc2nsnc12)c1ccccc1` [Example 36, (R)-2-(Benzo[1,2,5]thiadiazole-4-sulfonylamino)-4-bromo-N-(2-phenyl-propyl)-benzamide], the “CCK1 pKi” value in experiment [1] worked out at 7.1. Moreover, the “CCK2 pKi” value in experiment [2] was 5.8.

With `C[C@H](CNC(=O)c1ccc(Br)cc1NS(=O)(=O)c1c(F)cccc1F)c1ccccc1` [Example 37, (S)-4-Bromo-2-(2,6-difluoro-benzenesulfonylamino)-N-(2-phenyl-propyl)-benzamide], the Ki in experiment [1] is 398 nM; in experiment [2] it was 3980 nM.

As for `C[C@@H](CNC(=O)c1ccc(Br)cc1NS(=O)(=O)c1c(F)cccc1F)c1ccccc1` [Example 38, (R)-4-Bromo-2-(2,6-difluoro-benzenesulfonylamino)-N-(2-phenyl-propyl)-benzamide], the Ki in experiment [1] is 316 nM; in experiment [2] it was 2000 nM.

Consider `CC(CNC(=O)c1ccc(I)cc1NS(=O)(=O)c1cccc2nsnc12)c1ccc(Cl)c(Cl)c1` (centres unmarked) [Example 39, 2-(Benzo[1,2,5]thiadiazole-4-sulfonylamino)-N-[2-(3,4-dichloro-phenyl)-propyl]-4-iodo-benzamide], for which the results for the Ki in experiment [1] and in experiment [2] were 25.1 nM and 251 nM, respectively.

For the compound `CC(CNC(=O)c1ccc(I)cc1NS(=O)(=O)c1cccc2nccnc12)c1ccc(Cl)c(Cl)c1` (centres unmarked) [Example 40, N-[2-(3,4-Dichloro-phenyl)-propyl]-4-iodo-2-(quinoxaline-5-sulfonylamino)-benzamide], the values for the Ki in experiment [1] and in experiment [2] were 126 nM and 316 nM, respectively.

Take `O=C(N[C@@H](Cc1ccc(Cl)cc1Cl)C(=O)O)c1ccc(Br)cc1NS(=O)(=O)c1c(F)cccc1F` [Example 41, 2-[4-Bromo-2-(2,6-difluoro-benzenesulfonylamino)-benzoylamino]-3-(2,4-dichloro-phenyl)-propionic acid]: the Ki in experiment [1] was 631 nM; in experiment [2], 50.1 nM.

Regarding `CC(CNC(=O)c1ccc(I)cc1NS(=O)(=O)c1c(F)cccc1F)c1ccc(Cl)c(Cl)c1` (centres unmarked) [Example 42, N-[2-(3,4-Dichloro-phenyl)-propyl]-2-(2,6-difluoro-benzenesulfonylamino)-4-iodo-benzamide], the Ki in experiment [1] was 31.6 nM; in experiment [2] it was 3160 nM.

`CC(CNC(=O)c1ccc(Cl)cc1NS(=O)(=O)c1c(F)cccc1F)c1ccc(Cl)cc1Cl` (centres unmarked) [Example 43, 4-Chloro-N-[2-(2,4-dichloro-phenyl)-propyl]-2-(2,6-difluoro-benzenesulfonylamino)-benzamide]: the Ki was 126 nM in experiment [1] and 251 nM in experiment [2].

On to `CC(CNC(=O)c1ccc(Cl)cc1NS(=O)(=O)c1c(F)cccc1F)c1ccc([N+](=O)[O-])cc1` (centres unmarked) [Example 44, 4-Chloro-2-(2,6-difluoro-benzenesulfonylamino)-N-[2-(4-nitro-phenyl)-propyl]-benzamide], for which the Ki was 100 nM in experiment [1] and 3980 nM in experiment [2].

In the case of `CC(CNC(=O)c1ccc(Cl)cc1NS(=O)(=O)c1c(F)cccc1F)c1ccc(C(F)(F)F)cc1` (centres unmarked) [Example 45, 4-Chloro-2-(2,6-difluoro-benzenesulfonylamino)-N-[2-(4-trifluoromethyl-phenyl)-propyl]-benzamide], the figures for the Ki in experiment [1] and in experiment [2] were 251 nM and 1580 nM, respectively.

The values above are taken from US7855292B2, “Sulfonamide compounds” (Janssen Pharmaceutica NV, priority 2004, dated 2010).
